Laboratory results: patent US20260240844A1, “INHIBITORS OF CHD1L AND USES THEREOF” (The Regents of the University of Colorado, a body corporate, priority 2023, published 2026)
Where two headings read alike, the source gives them in different places.

Key:
[1] = test system: MiaPaca2 cells; experiment: MiaPaca2 cell viability, combination with chemotherapy; assay type: cell-based; conditions: MiaPaca2 cells
Excerpt: The cell viability assays and Bliss synergy analyses are as described above in Examples 1-9 and 11-12.

[2] = test system: HCT116 Parental cells; experiment: HCT116 Parental cell viability, combination with chemotherapy; assay type: cell-based; conditions: HCT116 cells
[3] = test system: SW620 Parental cells; experiment: SW620 Parental cell viability, combination with chemotherapy; assay type: cell-based; conditions: SW620 cells
[4] = test system: PAR in SUM149PT cells; experiment: PAR immunofluorescence (nuclear / cytoplasmic PAR); assay type: cell-based; conditions: cells pre-treated 2 hours with 1 μM PARG inhibitor before CHD1Li
Excerpt: Inhibition of CHD1L promotes PAR translocation to the cytoplasm. The main role of PARP1 during the DDR is to detect and signal the recruitment of repair machinery to the sites of DNA damage. For that, PARP1/2 catalyze PARylation, which is a pivotal […] protein modification, consisting of the addition of ADP-ribose units to the carboxyl group of acidic residues such as glutamate or aspartate on target proteins by using NAD^+ as substrate. CHD1L is one of the proteins that requires binding to these PAR chains for its activation and subsequent chromatin remodeling. Using immunofluorescence of PAR, the effect of PARPi and CHD1Li on PARylation in SUM149PT cells was investigated. […] In addition, the effect of doxorubicin on nuclear PARylation was reverted by CHD1L inhibition, causing an increase of PAR in the cytoplasm (FIG. 25A-C).

[5] = test system: SUM149PT tumor organoids; experiment: Tumor organoid cytotoxicity (CellTiter Glo 3D), SUM149PT; assay type: cell-based; conditions: for IC50: Homo sapiens, SUM149PT tumor organoids, read-out: IC50 docetaxel; for IC50 / Mean Synergy Score: SUM149PT; for calculated mean synergy scores: MDA-MB-231 and SUM149PT
Experimental: Tumor organoid culture—Cell lines were cultured as tumor organoids by seeding 2,000 to 5,000 cells/well into uncoated 96 well U-bottom Ultra Low Attachment Microplates (Corning) using their corresponding medium.
Luminescence was recorded using the EnVision plate reader (PerkinElmer) and values normalized to the controls using GraphPad Prism.

[6] = test system: SW948 tumor organoids; experiment: cells; conditions: SW948 tumor organoids; combined with Compound 6
Experimental: ATM is an important protein involved in the initial stages of the DNA damage response. […] ATM mutations are important markers being developed to identify metastatic CRC (mCRC) patients that may be sensitive to DNA damaging chemotherapy.
Synergy was assessed using the Bliss model.

[7] = test system: MDA-MB-231 tumor organoids; experiment: Tumor organoid cytotoxicity, MDA-MB-231; assay type: cell-based; conditions: MDA-MB-231
Experimental: Tumor organoid culture—Cell lines were cultured as tumor organoids by seeding 2,000 to 5,000 cells/well into uncoated 96 well U-bottom Ultra Low Attachment Microplates (Corning) using their corresponding medium. Cell aggregation was then promoted by centrifugation of the plates for 15 min at 1,000 rpm followed by the addition of Matrigel (Corning) to a 2-5% final concentration. Tumor organoids were maintained under standard cell culture conditions for 72 h prior to drug treatment.
Organoids were then transferred to a white solid bottom 96 well plate and incubated with an equal volume of CellTiter Glo 3D reagent (Promega) for 45 min on a shaker at 400 rpm. Luminescence was recorded using the EnVision plate reader (PerkinElmer) and values normalized to the controls using GraphPad Prism.

[8] = test system: Colo678 cells; experiment: Colo678 cell viability, combination with chemotherapy; assay type: cell-based; conditions: Colo678 cells
[9] = Compound 13 combined with Olaparib
[10] = Compound 13 combined with doxorubicin

Compound: Cc1cc(Nc2ccc(NC(=O)Cc3c[nH]c4cc(Cl)ccc34)cc2)nc(N2CCCC2)n1 [Compound 7, 2-(6-chloro-1H-indol-3-yl)-N-(4-((6-methyl-2-(pyrrolidin-1-yl)pyrimidin-4-yl)amino)phenyl)acetamide]
- calculated mean synergy score ([1]; combined with 5-FU): about 25
- calculated mean synergy score ([1]; combined with SN-38): about 24.5

Compound: Cc1cc(Nc2ccc(NC(=O)/C=C/c3cc(Br)cs3)cc2)nc(N2CCCC2)n1 [Compound 11, (E)-3-(4-bromothiophen-2-yl)-N-(4-((6-methyl-2-(pyrrolidin-1-yl)pyrimidin-4-yl)amino)phenyl)acrylamide]
- calculated mean synergy score ([2]; 72 h, combined with SN-38): about 14
- calculated mean synergy score ([2]; combined with 5-FU): about 8
- calculated mean synergy score ([3]; 72 h, combined with SN-38): about 24
- calculated mean synergy score ([3]; combined with 5-FU): about 43

Compound: Cc1cc(Nc2ccc(NC(=O)Cc3cc(Cl)nc4ccccc34)cc2)nc(N2CCCC2)n1 [Compound 8, 2-(2-chloroquinolin-4-yl)-N-(4-((6-methyl-2-(pyrrolidin-1-yl)pyrimidin-4-yl)amino)phenyl)acetamide]
- calculated mean synergy score ([1]; combined with 5-FU): about 29.5
- calculated mean synergy score ([1]; combined with SN-38): about 26

Compound: PDD00017273
- nuclear PAR under CHD1L inhibition [4]: kept the levels of nuclear PAR similar to control cells

Compound: CC(=O)O[C@@]12CO[C@@H]1C[C@H](O)[C@@]1(C)C(=O)[C@H](O)C3=C(C)[C@@H](OC(=O)[C@H](O)[C@@H](NC(=O)OC(C)(C)C)c4ccccc4)C[C@@](O)([C@@H](OC(=O)c4ccccc4)[C@H]21)C3(C)C [docetaxel]
- IC50 ([5]; combined with Compound 6): 0.5 µM
- IC50 ([5]; docetaxel alone): 55 µM
- increase in potency of the chemotherapy ([5]; SUM149PT BRCA1 mutant tumor organoids, + 1.9 μM Compound 6): 110 fold

Compound: O=C(O)C(=O)O.[NH-][C@@H]1CCCC[C@H]1[NH-].[Pt+2] [oxaliplatin]
- increase in potency of the chemotherapy [6]: 20 fold

Compound: Cc1cc(Nc2ccc(NC(=O)c3cc(Br)cs3)cc2)nc(N2CCCC2)n1 [Compound 13, 4-bromo-N-(4-((6-methyl-2-(pyrrolidin-1-yl)pyrimidin-4-yl)amino)phenyl)thiophene-2-carboxamide]
- calculated mean synergy scores ([5]; all combinations with 5-FU or doxorubicin): at least 20
- calculated mean synergy scores ([5]; all combinations with Olaparib): at least 40
- Mean Synergy Score ([5]; Compound 13 combined with 5-FU): 23.62
- Mean Synergy Score [5, 9]: 69.46
- Mean Synergy Score [5, 10]: 42.74
- Mean Synergy Score ([7]; Compound 13 combined with 5-FU): 23.62
- Mean Synergy Score [7, 9]: 40.44
- Mean Synergy Score [7, 10]: 23.62
- calculated mean synergy score ([8]; 72 h, combined with SN-38): about 41
- calculated mean synergy score ([8]; combined with 5-FU): about 12
- calculated mean synergy score ([1]; combined with 5-FU): about 57
- calculated mean synergy score ([1]; combined with SN-38): about 18
